In ChEMBL document CHEMBL3137667, “[Drug-induced liver injury; fourteenth updated edition of the bibliographic database of liver injuries and related drugs]” (Gastroenterol Clin Biol, 2004):

What was measured:
[1] = Highest frequency of moderate liver toxicity observed during clinical trials, expressed as a percentage. [column '% BIOL' in source]; details: human
[2] = Highest frequency of acute liver toxicity observed during clinical trials, expressed as a percentage. [column '% AIGUE' in source]; details: human
[3] = Comments (NB not yet translated). [column 'COMMENTAIRES' in source]; details: human
[4] = Times to onset, minimal and maximal, observed in the indexed observations. [column 'DELAI' in source]; details: human
[5] = human, serum
[6] = human, serum; remark: listed apart in the source
[7] = human
[8] = human; remark: listed apart in the source
[9] = human; remark: listed apart in the source
[10] = human, serum, 4383 h
[11] = human; remark: listed apart in the source
[12] = human; remark: listed apart in the source
[13] = human; remark: listed apart in the source
[14] = human; remark: listed apart in the source
[15] = human; remark: listed apart in the source
[16] = human; remark: listed apart in the source
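Throughout, for Hepatotoxicity (association with vascular disease): count of indexed literature references reporting vascular liver injury in humans, e.g. peliosis hepatitis, hepatic veno-occlusive disease or Budd-Chiari syndrome.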
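Throughout, for Hepatotoxicity (benign tumour): value is a count of indexed literature references citing a benign tumour confirmed by histopathology.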
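Throughout, for Hepatotoxicity (choleostasis): human cholestatic liver injury, shown by histopathology or by peak ALT or AST elevation over alkaline phosphatase ratio below 2, value counts indexed literature reports.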
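Throughout, for Hepatotoxicity (chronic liver disease): chronic liver injury confirmed by histopathology or persistently raised serum aminotransferase activity beyond 6 months, value given as the count of indexed literature references.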
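Throughout, for Hepatotoxicity (cirrhosis): value is a count of indexed literature references reporting cirrhosis confirmed by histopathology.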
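Throughout, for Hepatotoxicity (cytolytic): human cytolytic liver injury, shown by histopathology or by a ratio above 5 of peak ALT or AST elevation to alkaline phosphatase elevation, value counts indexed references.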
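Throughout, for Hepatotoxicity (granulomatous hepatitis): value is a count of indexed literature references reporting granulomatous liver disease confirmed by histopathology.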
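Throughout, for Hepatotoxicity (malignant tumour): malignant tumour confirmed by histopathology, value gives the count of indexed literature references reporting it.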
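Throughout, for Hepatotoxicity (severe hepatitis): human clinical data: severe hepatitis, meaning potentially life-threatening liver failure or clinically observed cases, the value counts how many indexed literature references report it.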
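Throughout, for Hepatotoxicity (steatosis): steatosis confirmed by histopathology, value is the count of indexed references.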

SMILES	Hepatotoxicity (moderate) [1] [%]	Hepatotoxicity (acute) [2] [%]	Hepatotoxicity (comment) [3]	Hepatotoxicity (time to onset) [4]	Hepatotoxicity (moderate) [5]	Hepatotoxicity (acute) [6]	Hepatotoxicity (cytolytic) [7]	Hepatotoxicity (choleostasis) [8]	Hepatotoxicity (severe hepatitis) [9]	Hepatotoxicity (chronic liver disease) [10]	Hepatotoxicity (cirrhosis) [11]	Hepatotoxicity (granulomatous hepatitis) [12]	Hepatotoxicity (association with vascular disease) [13]	Hepatotoxicity (steatosis) [14]	Hepatotoxicity (malignant tumour) [15]	Hepatotoxicity (benign tumour) [16]
CC(=O)OCC(CCn1cnc2cnc(N)nc21)COC(C)=O [FAMCICLOVIR]	0	0	REACTIVATION_HVB	12 weeks	0	1	0	0	1	0	0	0	0	0	0	0
CC(C(=O)O)c1cccc(Oc2ccccc2)c1 (stereo not given) [FENOPROFEN]	7	0	RC/NAPROXENE	1 week - 7 weeks	1	3	2	1	0	0	0	0	0	0	0	0
Nc1nc(F)nc2c1ncn2[C@@H]1O[C@H](CO)[C@@H](O)[C@@H]1O [FLUDARABINE]	42.9	0	REACTIVATION_HVB	8 months	5	2	1	0	1	0	0	0	0	0	0	0
C[C@]1(O)CC[C@H]2[C@@H]3CCC4=CC(=O)CC[C@]4(C)[C@@]3(F)[C@@H](O)C[C@@]21C [FLUOXYMESTERONE]	7.1	0	ANGIOSARCOME PELIOSE	6 months - 13 years	2	2	0	2	0	0	0	0	6	0	3	1
CCC(=O)O[C@@H](O[P@](=O)(CCCCc1ccccc1)CC(=O)N1C[C@H](C2CCCCC2)C[C@H]1C(=O)O)C(C)C [FOSINOPRIL]	1.2	0	PERICHOLANGITE CHOLESTASE_PROLONGEE	3 weeks - 3 months	3	2	0	2	0	0	0	0	0	0	0	0
